Assay results as given in ChEMBL document CHEMBL2406914 (ACS Med Chem Lett, 2013).

Columns and labels:
[1] = target: T1, Prostaglandin G/H synthase 1 (Ovis aries, UniProt P05979); assay: Inhibition of ovine COX1-mediated arachidonic acid oxidation using [14C]AA as substrate after 5 mins by GC/NICI/MS analysis
T1 sequence (P05979 whole entry): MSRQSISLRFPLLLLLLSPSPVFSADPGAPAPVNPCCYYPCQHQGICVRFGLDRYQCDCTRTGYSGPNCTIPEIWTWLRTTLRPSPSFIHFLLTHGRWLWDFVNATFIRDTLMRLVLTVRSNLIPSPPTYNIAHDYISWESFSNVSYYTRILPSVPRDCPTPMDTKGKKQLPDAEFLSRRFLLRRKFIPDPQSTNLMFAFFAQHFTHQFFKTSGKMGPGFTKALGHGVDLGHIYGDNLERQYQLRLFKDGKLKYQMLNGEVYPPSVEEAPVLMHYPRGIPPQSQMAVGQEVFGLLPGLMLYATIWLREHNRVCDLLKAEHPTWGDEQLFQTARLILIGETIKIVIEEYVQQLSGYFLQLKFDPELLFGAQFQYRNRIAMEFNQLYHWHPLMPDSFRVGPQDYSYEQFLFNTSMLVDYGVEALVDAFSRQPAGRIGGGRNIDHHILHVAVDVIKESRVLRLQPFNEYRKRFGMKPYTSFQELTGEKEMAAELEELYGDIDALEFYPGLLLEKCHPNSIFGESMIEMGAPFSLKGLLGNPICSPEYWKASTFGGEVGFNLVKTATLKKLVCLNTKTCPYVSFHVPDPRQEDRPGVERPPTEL

[2] = Metabolic stability in rat liver microsomes assessed as compound remaining at 10 uM after 30 mins by LC-MS analysis; details: human
HepG2 = assay: Cytotoxicity against human HepG2 cells assessed as intracellular ATP level after 24 hrs by luciferase reporter gene assay; assay type: cell-based; details: HepG2, 24 h
Myoglobin = target: T2, Myoglobin (Homo sapiens, UniProt P02144); assay: Inhibition of myoglobin (unknown origin)-mediated arachidonic acid oxidation using [14C]AA as substrate after 3 hrs by GC/NICI/MS analysis
T2 sequence (P02144 whole entry): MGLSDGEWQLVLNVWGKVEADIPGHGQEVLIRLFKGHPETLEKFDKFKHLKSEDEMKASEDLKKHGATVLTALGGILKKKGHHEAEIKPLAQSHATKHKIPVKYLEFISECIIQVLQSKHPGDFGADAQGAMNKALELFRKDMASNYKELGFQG

Compound	IC50 [1] [µM]	remaining at 0.5 h, 10 µM [2] [%]	EC50 (HepG2) [µM]	IC50 (Myoglobin) [µM]
Cc1nc2c(c(C)c1O)COC(=O)N2	198	97	> 5000	
Cc1nc2c(c(C)c1O)CNC(=O)N2	> 1000	87	2960	
CC(=O)Nc1ccc(O)cc1 [ACETAMINOPHEN]	372		594	2.3
O=C1NCc2cc(O)cnc2N1	451	108	4760	
